The target in assay [1] is T1, dog NPC1L1 (Canis lupus familiaris, UniProt A0A8I3RZG1). The assay is described as follows: [3H]AS binding to dog NPC1L1 transiently expressed in TsA201 cells. Conditions: for IC50: 4.65 nM [3H]AS, 4 h, 37° C., read-out: IC50 inhibition of [3H]AS binding; for Ki: dog NPC1L1/TsA201 cells, read-out: Ki (competition with [3H]AS). Here is the method: rNPC1L1/HEK293 and TsA201 cells were seeded at a density of 10,000 cells per well in 96-well poly-D-lysine coated plates and cells were allowed to attach for approximately 18 h at 37° C. TsA201 cells were subsequently transfected with dog NPC1L1/pcDNA5/FRT according to the manufacturer's instructions (Roche) and incubated for 3 days at 37° C. MDCKII-derived, LLC-PKI, HepG2, or CaCo-2 cells were seeded at a density of 25,000 cells per well in 96-well tissue culture treated plates, and cells were allowed to attach and differentiate for approximately 72 h at 37° C., except for CaCo-2 cells where differentiation took approximately 14 days at 37° C. […] Duplicate samples were averaged for each experimental point. […] Dissociation kinetics were determined by addition of 100 μM EZE-gluc, and incubating for different periods of time. Nonspecific binding was defined in the presence of 100 μM EZE-gluc. At the end of the incubation period, cells were washed twice with 200 μl of pre-warmed DMEM to separate bound from free ligand, 1% SDS was added to the wells followed by 5 ml of Scintillant, and radioactivity associated with cells was determined using a β-counter. […] Thereafter, plates were placed on ice and cells were washed twice with ice-cold PBS, followed by ice-cold acid wash with DMEM, pH 3.5, for 1, 5 or 15 minutes. […] For Transwell experiments, MDCKII cells were seeded at 200,000 cells/well in a 24-well plate and incubated for 3 days at 37° C. […] Thereafter, both apical and basolateral compartments were washed three times with PBS, and the Transwell filter was cut out and its associated radioactivity determined using afi-counter. Data from saturation, competition and ligand dissociation experiments were analyzed as described in the literature; see, Priest, et al., 2004 Biochemistry 43:9866-9876; Knaus et al., 1995 Biochemistry 34:13627-13634. The association rate, k1, was determined by employing the pseudo-first-order rate equation k1=kobs([LR]e/[L][LR]max)) where [LR]max is the concentration of the complex at equilibrium, [L] is the concentration of ligand, [LR]max is the total receptor concentration, kobs is the slope of the pseudo-first order plot, ln([LR]e/([LR]e−[LR]t)) versus time, and [LR]t is the receptor-ligand complex at one given time point t.
T1 sequence (A0A8I3RZG1 entry or part of it): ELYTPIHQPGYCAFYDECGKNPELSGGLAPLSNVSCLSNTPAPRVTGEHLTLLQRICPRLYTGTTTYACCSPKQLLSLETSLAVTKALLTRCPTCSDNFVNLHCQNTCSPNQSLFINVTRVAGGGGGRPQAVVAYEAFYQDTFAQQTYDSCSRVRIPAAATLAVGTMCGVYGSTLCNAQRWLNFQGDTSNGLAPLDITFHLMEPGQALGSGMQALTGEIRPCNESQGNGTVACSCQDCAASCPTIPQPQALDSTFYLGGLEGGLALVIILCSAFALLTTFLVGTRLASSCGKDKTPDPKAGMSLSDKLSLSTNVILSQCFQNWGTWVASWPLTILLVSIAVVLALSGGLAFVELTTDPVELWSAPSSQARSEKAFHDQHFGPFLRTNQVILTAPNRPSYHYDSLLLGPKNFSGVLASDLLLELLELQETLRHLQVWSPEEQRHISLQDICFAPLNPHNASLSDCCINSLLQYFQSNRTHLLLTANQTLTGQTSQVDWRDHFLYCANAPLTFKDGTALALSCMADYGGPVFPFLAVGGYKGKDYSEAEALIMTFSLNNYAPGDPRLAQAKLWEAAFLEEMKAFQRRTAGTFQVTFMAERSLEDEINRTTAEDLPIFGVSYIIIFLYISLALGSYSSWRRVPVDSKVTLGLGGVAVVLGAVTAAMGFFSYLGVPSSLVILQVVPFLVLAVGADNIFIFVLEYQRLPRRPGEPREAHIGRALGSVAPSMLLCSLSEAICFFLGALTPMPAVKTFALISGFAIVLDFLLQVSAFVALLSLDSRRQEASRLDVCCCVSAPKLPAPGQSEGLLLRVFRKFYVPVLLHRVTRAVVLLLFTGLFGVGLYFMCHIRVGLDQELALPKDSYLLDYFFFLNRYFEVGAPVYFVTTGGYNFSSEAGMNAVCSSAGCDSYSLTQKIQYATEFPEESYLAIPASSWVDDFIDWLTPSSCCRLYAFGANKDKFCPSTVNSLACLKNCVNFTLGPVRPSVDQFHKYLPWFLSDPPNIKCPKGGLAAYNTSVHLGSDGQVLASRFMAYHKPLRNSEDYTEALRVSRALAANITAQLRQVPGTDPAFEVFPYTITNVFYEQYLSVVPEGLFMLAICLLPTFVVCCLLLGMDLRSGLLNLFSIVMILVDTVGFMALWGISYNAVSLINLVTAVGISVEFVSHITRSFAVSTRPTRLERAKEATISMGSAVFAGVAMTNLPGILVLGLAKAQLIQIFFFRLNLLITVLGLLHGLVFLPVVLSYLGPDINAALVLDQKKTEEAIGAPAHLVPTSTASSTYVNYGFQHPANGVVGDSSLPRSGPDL
To further validate this statement, cloned dog NPC1L1 was transiently expressed in TsA201 cells and binding of [^3]AS to these cells was then characterized (FIG. 5 and Table 1).

A further assay concerns MDCKII-Flp cells. The assay is described as follows: [3H]cholesterol flux into MDCKII-Flp cells. Type of assay: cell-based, dog. Conditions: 10 μM PS, 5.5% βmCD pre-treatment. As to the method: (§1) Flux assays were performed essentially as described by Yu et al., 2006 J Biol. Chem. 281:6616-6624. Briefly, cell growth medium was completely aspirated and replaced with 200 μl of 5% LPDS containing the appropriate concentration of compound and incubated at 37° C./3 h in a 5% CO2 incubator. Media was subsequently aspirated from cells and cells were incubated in 200 μl of 0-5.5% βmCD dissolved and filtered through a […] filter at 37° C./45 minutes in a 5% CO2 incubator. Media was dumped from cells that were then washed twice with 125 μl of 5% LPDS before media was aspirated and [3H]cholesterol complexed to BSA in 5% LPDS was added; see Yu et al., 2006 J. Biol. Chem. 281:6616-6624. After 45 minute incubation, cells were washed twice with DMEM, thoroughly aspirated and then 1% SDS was added prior to extraction for scintillation counting.
To validate MDCKII cells as an appropriate surrogate system for monitoring NPC1L1-dependent processes, we evaluated their ability to perform EZE-sensitive cholesterol flux using a similar protocol to that recently reported. This assay makes use of the ability of βmCD to deplete membrane-bound cholesterol. Subsequent exposure of cells to [^3H] cholesterol provides a time-dependent flux of this substrate into the cells. […]

Assay [2] has as its target T1, dog NPC1L1. Briefly: [3H]cholesterol flux into dNPC1L1/MDCKII-Flp cells. In kind it is cell-based. Here is the method:
as §1
Further evidence for the role of NPC1L1 expression levels on EZE-sensitive [^3H]cholesterol influx was obtained by analyzing the properties of MDCKII-Flp cells over-expressing dog NPC1L1 (dNPC1L1/MDCKII-Flp cells) in an inducible manner.
To further characterize the [^3H] cholesterol influx process into MDCK cells, the potency of EZE-like compound PS for inhibiting [^3H] cholesterol uptake was determined. […]

As usually defined, the IC50 is the concentration that inhibits the measured activity by half. A word on the Ki: it is a dissociation constant, usually derived from enzyme kinetics or from competition with a known ligand. With `O=C1[C@H](CC[C@H](O)c2ccc(F)cc2)[C@@H](c2ccc(O)cc2)N1c1ccc(F)cc1` [EZE, Ezetimibe], on dog NPC1L1 [1], the IC50 is 111 nM and the inhibition constant (Ki) is 21.5 ± 7.56 nM.
For `O=C(O)[C@H]1O[C@@H](Oc2ccc([C@@H]3[C@@H](CC[C@H](O)c4ccc(F)cc4)C(=O)N3c3ccc(F)cc3)cc2)[C@H](O)[C@@H](O)[C@@H]1O` [EZE-gluc, ezetimibe glucuronide] the same measures were 27 nM and 5.51 ± 1.52 nM.
With `COC(=O)[C@H]1O[C@@H](Oc2ccc([C@@H]3[C@@H](CC[C@H](O)c4ccc(F)cc4)C(=O)N3c3ccc(C#CCNS(C)(=O)=O)cc3)cc2)[C@H](O)[C@@H](O)[C@@H]1O` [PS, 4-[(2S,3R)-3-[(3S)-3-(4-fluorophenyl)-3-hydroxypropyl]-1-(4-{3-[(methylsulfonyl)amino]prop-1-yn-1-yl}phenyl)-4-oxoazetidin-2-yl]phenyl methyl-β-D-glucopyranosiduronate], the IC50 at dog NPC1L1 [1] amounted to 3.73 nM; at dog NPC1L1 [2] (dNPC1L1/MDCKII-Flp, FIG. 7C, read-out: IC50 inhibition of [3H]cholesterol uptake), 0.32 ± 0.09 nM. For the same molecule, the Ki at dog NPC1L1 [1] stood at 0.97 ± 0.08 nM. Also, the “blockade of [3H]cholesterol influx” value in the assay on MDCKII-Flp cells is reported as “marginally blocked”; at dog NPC1L1 [2] (10 μM PS, 5.5% βmCD, after induction with 4 mM sodium butyrate), “almost completely blocked”.

(Values after patent US20100184094A1, “USE OF MDCK CELLS IN THE EVALUATION OF CHOLESTEROL MODULATORS” (priority 2007, published 2010).)
